Data reported in publication PMC4076215, “Nickel(II) Complex of Polyhydroxybenzaldehyde N4-Thiosemicarbazone Exhibits Anti-Inflammatory Activity by Inhibiting NF-κB Transactivation” (PLoS ONE, 2014).

Key:
[1] = tested on: NF-κB target genes TNFα, IFNβ, IL6 and IP10; experiment: Quantitative PCR of NF-κB target genes, LPS-treated RAW264.7; assay type: cell-based; settings: RAW264.7, pretreated 4 h, LPS 4 h
Method: Cells pretreated with or without of complex 5 for 4 h were incubated with LPS or TNFα for 4 h. Total RNAs were isolated with Thermo Scientific GeneJET RNA Purification Kit. Complimentary DNAs were synthesized and Quantitative PCR was performed with 2× SYBR Green PCR Master mix (Thermo Scientific) and run on the Bio-Rad CFX 96 Real-Time PCR System. All data were then normalized to L32. The sequences of the primers are listed in Supporting Information Table S1.
To test if complex 5 inhibits NF-κB-mediated gene expression, we cultured RAW264.7 cells with or without complex 5 for 4 h before treating the cells with LPS for 4 h. Cells were collected for RNA isolation and real time PCR analysis (Figure 6A).
Figure 6 Complex 5 inhibits NF-κB transactivation activity. (A) RAW264.7 cells pretreated with or without complex 5 for 4 h were treated with LPS for 4 h. The expression of TNFα, IFNβ, IL6 and IP10 were measured by QPCR. (B) HeLa S3 cells pretreated with or without complex 5 for 4 h were stimulated with TNFα for 4 h. The expression of TNFα, IL8, CCL5, ICAM1, IL6 and A20 were measured by QPCR. (C) K562 or KCL22 cells pretreated with or without 50 µg/ml of complex 5 for 4 h were stimulated with 100 ng/ml TNFα for 2 h. The expression of IL8 and TNF were measured by QPCR. […] Cell lysates were prepared and the luciferase activities were measured. […]

[2] = Liver functional test (serum) after oral dosing; assay type: in vivo, C57BL/6 mice; settings: after two weeks
Method: Liver functional test. C57BL/6 mice at age 8-12 weeks old were administrated orally with control PBS or with various concentrations (125 mg/kg, 250 mg/kg and 500 mg/kg) of complex 5. n= 6 (3 male and 3 female mice)/group. After two weeks, sera were collected from the mice for liver functional test.
Shown were mean ± SD. TBIL: Total Bilirubin, BC: Conjugated
Bilirubin, ALP: Alkaline Phophatase, ALT: Alanine Aminotransferase, AST: Aspartate Transaminase, GGT: G-Glutamyl Transferase.

NC1=[S+][Ni-2]2([P+](c3ccccc3)(c3ccccc3)c3ccccc3)[O]c3c(O)cccc3C=[N+]2N1.[Cl-] [complex 5, {2-[(2-Carbamothiolylhydrazin-1-ylidene-[kappa]2N1,S)methyl]-6-hydroxyphenolato-[kappa]O1}(triphenylphosphine-[kappa]P)nickel(II) chloride]
LPS-induced expression of TNFα, IFNβ, IL6 and IP10 (QPCR) [1]: abolished | ALP (Alkaline Phophatase) ([2]; 125 mg/kg oral): 192.00 IU/L | ALT (Alanine Aminotransferase) ([2]; 125 mg/kg oral): 69.00 IU/L | AST (Aspartate Transaminase) ([2]; 125 mg/kg oral): 421.00 IU/L | Albumin ([2]; 125 mg/kg oral): 18.00 g/L | BC (Conjugated Bilirubin) ([2]; 125 mg/kg oral): < 1 µmol/L | GGT (G-Glutamyl Transferase) ([2]; 125 mg/kg oral): < 3 IU/L | Globulin ([2]; 125 mg/kg oral): 42.00 g/L | TBIL (Total Bilirubin) ([2]; 125 mg/kg oral): 3.00 µmol/L | Total Protein ([2]; 125 mg/kg oral): 60.00 g/L | ALP (Alkaline Phophatase) ([2]; 250 mg/kg oral): 195.00 IU/L | ALT (Alanine Aminotransferase) ([2]; 250 mg/kg oral): 70.00 IU/L | AST (Aspartate Transaminase) ([2]; 250 mg/kg oral): 414.00 IU/L | Albumin ([2]; 250 mg/kg oral): 17.00 g/L | BC (Conjugated Bilirubin) ([2]; 250 mg/kg oral): < 1 µmol/L | GGT (G-Glutamyl Transferase) ([2]; 250 mg/kg oral): < 3 IU/L | Globulin ([2]; 250 mg/kg oral): 42.00 g/L | TBIL (Total Bilirubin) ([2]; 250 mg/kg oral): 2.50 µmol/L | Total Protein ([2]; 250 mg/kg oral): 59.00 g/L | ALP (Alkaline Phophatase) ([2]; 500 mg/kg oral): 219.50 IU/L | ALT (Alanine Aminotransferase) ([2]; 500 mg/kg oral): 70.00 IU/L | AST (Aspartate Transaminase) ([2]; 500 mg/kg oral): 316.50 ± 78.49 IU/L | Albumin ([2]; 500 mg/kg oral): 16.00 g/L | BC (Conjugated Bilirubin) ([2]; 500 mg/kg oral): < 1 µmol/L | GGT (G-Glutamyl Transferase) ([2]; 500 mg/kg oral): < 3 IU/L | Globulin ([2]; 500 mg/kg oral): 37.50 g/L | TBIL (Total Bilirubin) ([2]; 500 mg/kg oral): 3.00 µmol/L | Total Protein ([2]; 500 mg/kg oral): 53.50 g/L
